Common to all, as to format: biochemical
Test [1] deals with T1, Dipeptidyl peptidase I (DP I, cathepsin C) (Rattus norvegicus, UniProt P80067).
T1 construct: purchased Qiagen GmbH, Hilden, Germany
T1 sequence (P80067 25-462): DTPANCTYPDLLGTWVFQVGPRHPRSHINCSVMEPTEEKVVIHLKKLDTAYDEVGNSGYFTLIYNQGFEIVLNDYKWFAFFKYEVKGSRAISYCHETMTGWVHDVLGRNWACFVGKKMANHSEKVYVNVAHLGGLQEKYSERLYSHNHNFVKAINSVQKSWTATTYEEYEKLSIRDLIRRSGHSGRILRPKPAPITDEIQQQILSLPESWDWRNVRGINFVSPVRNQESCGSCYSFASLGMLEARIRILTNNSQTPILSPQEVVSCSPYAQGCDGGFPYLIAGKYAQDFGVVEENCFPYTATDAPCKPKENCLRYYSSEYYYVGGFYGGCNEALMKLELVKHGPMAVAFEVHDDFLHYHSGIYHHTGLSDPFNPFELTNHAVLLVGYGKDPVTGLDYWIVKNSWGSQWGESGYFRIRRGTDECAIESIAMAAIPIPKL
Put plainly: Cross reacting enzymes: dipeptidyl peptidase I. The note with it: MES buffer pH5.6, 30° C. How it is done:
DP I or cathepsin C is a lysosomal cysteine protease which cleaves off dipeptides from the N-terminus of their substrates (Gutman, H. R. & Fruton, J. S., 1948, J. Biol: Chem., 174, 851-858). It is classified as a cysteine protease. The enzyme used was purchased from Qiagen (Qiagen GmbH, Hilden, Germany). In order to get a fully active enzyme, the enzyme was diluted 1000 fold in MES buffer pH5.6 (40 mM MES, 4 mM DTT, 4 mM KCl, 2 mM EDTA, 0.015% Brij) and pre-incubated for 30 min at 30° C.
50 μl solution with the test compounds in a concentration range of 1*10^−5 M-1*10^−7 M was admixed with 110 μl buffer-enzyme-mixture. The assay mixture was pre-incubated at 30° C. for 15 min. After pre-incubation, 100 μl histidylseryl-βnitroaniline (2*10^−5M) was added and measurement of yellow color development due to β-nitroaniline release was performed at 30° C. and […] for 10 min, using a plate reader (HTS7000 plus, Applied Biosystems, Weiterstadt, Germany).
(§1) The IC 50-values were calculated using Graphit 4.0.15 (Erithacus Software, Ltd., UK).

In test [2] the target is T2, Prolidase from porcine kidney (Sus scrofa, UniProt A0A5G2QQV1).
T2 sequence (A0A5G2QQV1 1-463): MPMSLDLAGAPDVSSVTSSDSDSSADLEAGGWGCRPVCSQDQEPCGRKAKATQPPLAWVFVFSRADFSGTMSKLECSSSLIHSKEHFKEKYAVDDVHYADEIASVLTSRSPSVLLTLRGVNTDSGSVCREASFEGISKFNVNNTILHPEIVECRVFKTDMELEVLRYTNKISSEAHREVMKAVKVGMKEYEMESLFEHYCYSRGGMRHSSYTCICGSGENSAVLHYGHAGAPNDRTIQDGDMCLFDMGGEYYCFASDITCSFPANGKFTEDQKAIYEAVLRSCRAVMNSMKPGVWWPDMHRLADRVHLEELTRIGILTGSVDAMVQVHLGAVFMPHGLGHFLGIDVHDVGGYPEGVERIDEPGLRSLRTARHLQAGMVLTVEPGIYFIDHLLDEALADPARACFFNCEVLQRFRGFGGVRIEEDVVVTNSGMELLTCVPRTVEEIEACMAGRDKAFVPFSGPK
The test is described as follows: Cross reacting enzymes: prolidase. The note with it: substrate Ile-Pro-OH, pH 7.6. Here is the method: Prolidase from porcine kidney (ICN Biomedicals, Eschwege, Germany) was solved (1 mg/ml) in assay buffer (20 mM NH4(CH3COO)2, 3 mM MnCl2, pH 7.6). In order to get a fully active enzyme the solution was incubated for 60 min at room temperature.
450 μl solution with the test compounds in an concentration range of 5*10^−3 M-5*10^−7 M were admixed with 500 μl buffer solution (20 mM NH4(CH3COO)2, pH 7.6) and 250 μl Ile-Pro-OH (0.5 mM in the assay mixture). The assay mixture was pre-incubated at 30° C. for 5 min. After pre-incubation, 75 μl Prolidase (1:10 diluted in assay buffer) was added and measurement was performed at 30° C. and λ=220 nm for 20 min using a UV/Vis photometer, UV1 (Thermo Spectromc, Cambridge, UK).
as §1

Test [3] addresses T3, Acylamino acid-releasing enzyme (AARE) (Homo sapiens, UniProt P13798).
T3 sequence (P13798 1-732): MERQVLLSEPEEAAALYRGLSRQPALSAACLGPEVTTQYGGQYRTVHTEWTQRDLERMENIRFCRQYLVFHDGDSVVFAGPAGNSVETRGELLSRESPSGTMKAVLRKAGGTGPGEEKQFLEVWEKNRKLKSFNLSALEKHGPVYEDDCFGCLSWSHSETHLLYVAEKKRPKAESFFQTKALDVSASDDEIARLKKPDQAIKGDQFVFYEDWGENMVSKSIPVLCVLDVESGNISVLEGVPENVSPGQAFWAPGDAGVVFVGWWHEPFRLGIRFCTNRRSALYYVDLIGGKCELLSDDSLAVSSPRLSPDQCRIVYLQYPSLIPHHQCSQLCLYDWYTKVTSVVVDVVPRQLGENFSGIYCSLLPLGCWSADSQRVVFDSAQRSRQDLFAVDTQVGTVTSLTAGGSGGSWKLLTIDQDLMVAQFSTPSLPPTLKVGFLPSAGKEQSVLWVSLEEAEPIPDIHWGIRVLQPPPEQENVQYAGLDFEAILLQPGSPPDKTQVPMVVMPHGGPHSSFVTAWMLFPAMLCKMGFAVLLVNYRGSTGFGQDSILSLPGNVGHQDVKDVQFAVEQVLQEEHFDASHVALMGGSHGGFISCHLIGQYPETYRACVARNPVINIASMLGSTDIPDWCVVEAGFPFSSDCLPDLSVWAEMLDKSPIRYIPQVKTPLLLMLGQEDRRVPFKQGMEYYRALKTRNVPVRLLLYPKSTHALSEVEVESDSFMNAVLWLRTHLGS
Put plainly: Cross reacting enzymes: AARE. The note with it: substrate Acetyl-Met-AMC, pH 7.2. How it is done:
The assay mixture was pre-incubated at 30° C. for 15 min. After pre-incubation, 50 μl Acetyl-Met-AMC solution (0.54 mM) was added. Release of the AMC was measured at 30° C. using a NOVOstar fluorescence microplate reader (BMG) and excitation/emission wavelengths of 380/460 nm.
The IC50-values were calculated from the slopes of the progress curves using Graphit 4.0.15 (Erithacus Software, Ltd., UK).

With `Br.CC(=O)OCC(=O)[C@@H]1CCCN1C(=O)[C@@H](NC(=O)[C@H](C)N)C(C)C` [H-Ala-Val-Pro-CH2O—CO—CH3*HBr, 2-[(Acetyloxy-methyl)carbonyl]-1-N-[(L)-Alanyl-(L)-Valinyl]-(2S)-pyrrolidine hydrobromide], in test [1], the half-inhibitory concentration (IC50) was 120 µM. For the same molecule, the “Prolidase IC50” value in test [2] is given as “no inhibition”. The “AARE IC50” value in test [3] is recorded as “no inhibition”.
With `Br.CC(C)[C@H](NC(=O)[C@H](C)N)C(=O)N1CCC[C@H]1C(=O)COC(=O)c1ccccc1` [H-Ala-Val-Pro-CO—CH2O—CO—Ph*HBr, 2-[(Benzoyloxy-methyl)carbonyl]-1-N-[{(L)-Alanyl}-(L)-Valinyl]-(2S)-pyrrolidine hydrobromide], the half-maximal inhibitory concentration (IC50) in test [1] is 316 µM; in test [2] it was 414 µM. Besides, the “AARE IC50” value in test [3] is “no inhibition”.
Take `Br.CC(=O)[C@@H]1CCCN1C(=O)[C@@H](NC(=O)[C@H](C)N)C(C)C` [H-Ala-Val-Pro-Me*HBr, 2-Methylcarbonyl-1-N-[(L)-Alanyl-(L)-Valinyl]-(2S)-pyrrolidine hydrobromide]: the “DP I IC50” value in test [1] is “no inhibition”. This molecule displayed an IC50 in test [2] of 413 µM. For the same molecule, the “AARE IC50” value in test [3] is reported as “no inhibition”.
